Assay results from ChEMBL document CHEMBL2413072, “Synthesis and in vitro anticancer studies of novel C-2 arylidene congeners of lantadenes” (2013).

What was measured:
Assay type in all cases: functional
[1] = system: UACC-257; assay: Growth inhibition of human UACC257 cells assessed as cell growth at 10^-8 M by sulforhodamine B assay; details: read-out: Activity
[2] = system: OVCAR-3; assay: Growth inhibition of human OVCAR3 cells assessed as cell growth at 10^-4 M by sulforhodamine B assay; details: read-out: Activity
[3] = system: MDA-MB-231; assay: Growth inhibition of human MDA-MB-231 cells assessed as cell growth at 10^-6 M by sulforhodamine B assay; details: read-out: Activity
[4] = system: MDA-MB-231; assay: Growth inhibition of human MDA-MB-231 cells assessed as cell growth at 10^-4 M by sulforhodamine B assay; details: read-out: Activity
[5] = system: RXF 393; assay: Growth inhibition of human RXF393 cells assessed as cell growth at 10^-6 M by sulforhodamine B assay; details: read-out: Activity
[6] = system: COLO 205; assay: Growth inhibition of human COLO205 cells assessed as cell growth at 10^-8 M by sulforhodamine B assay; details: read-out: Activity
[7] = system: HOP-92; assay: Growth inhibition of human HOP92 cells assessed as cell growth at 10^-7 M by sulforhodamine B assay; details: read-out: Activity
[8] = system: HT-29; assay: Growth inhibition of human HT-29 cells assessed as cell growth at 10^-6 M by sulforhodamine B assay; details: read-out: Activity
[9] = system: MDA-MB-468; assay: Growth inhibition of human MDA-MB-468 cells assessed as cell growth at 10^-6 M by sulforhodamine B assay; details: read-out: Activity
[10] = Growth inhibition of human Hs 578T cells assessed as cell growth at 10^-7 M by sulforhodamine B assay; details: read-out: Activity
[11] = system: ACHN; assay: Growth inhibition of human ACHN cells by sulforhodamine B assay
[12] = system: SK-MEL-28; assay: Growth inhibition of human SK-MEL-28 cells assessed as cell growth at 10^-8 M by sulforhodamine B assay; details: read-out: Activity
[13] = system: U-251; assay: Growth inhibition of human U251 cells assessed as cell growth at 10^-7 M by sulforhodamine B assay; details: read-out: Activity
[14] = system: K562; assay: Growth inhibition of human K562 cells by sulforhodamine B assay
[15] = system: UACC-257; assay: Growth inhibition of human UACC257 cells assessed as cell growth at 10^-6 M by sulforhodamine B assay; details: read-out: Activity
[16] = system: ACHN; assay: Growth inhibition of human ACHN cells assessed as cell growth at 10^-6 M by sulforhodamine B assay; details: read-out: Activity
[17] = system: MDA-MB-468; assay: Growth inhibition of human MDA-MB-468 cells assessed as cell growth at 10^-8 M by sulforhodamine B assay; details: read-out: Activity
[18] = system: NCI-H23; assay: Growth inhibition of human NCI-H23 cells assessed as cell growth at 10^-6 M by sulforhodamine B assay; details: read-out: Activity
[19] = system: KM12; assay: Growth inhibition of human KM12 cells by sulforhodamine B assay
[20] = system: Malme-3M; assay: Growth inhibition of human MALME-3M cells assessed as cell growth at 10^-8 M by sulforhodamine B assay; details: read-out: Activity
[21] = system: NCI-H322M; assay: Growth inhibition of human NCI-H322M cells assessed as cell growth at 10^-8 M by sulforhodamine B assay; details: read-out: Activity
[22] = system: NCI-H226; assay: Growth inhibition of human NCI-H226 cells by sulforhodamine B assay
[23] = system: SR; assay: Growth inhibition of human SR cells assessed as cell growth at 10^-4 M by sulforhodamine B assay; details: read-out: Activity
[24] = system: CCRF-CEM; assay: Growth inhibition of human CCRF-CEM cells assessed as cell growth at 10^-6 M by sulforhodamine B assay; details: read-out: Activity
[25] = system: HL-60(TB); assay: Growth inhibition of human HL-60(TB) cells assessed as cell growth at 10^-7 M by sulforhodamine B assay; details: read-out: Activity
[26] = system: SN12C; assay: Growth inhibition of human SN12C cells assessed as cell growth at 10^-4 M by sulforhodamine B assay; details: read-out: Activity
[27] = system: A498; assay: Growth inhibition of human A498 cells assessed as cell growth at 10^-4 M by sulforhodamine B assay; details: read-out: Activity
[28] = system: UACC-62; assay: Growth inhibition of human UACC62 cells assessed as cell growth at 10^-7 M by sulforhodamine B assay; details: read-out: Activity
[29] = system: SK-MEL-28; assay: Growth inhibition of human SK-MEL-28 cells assessed as cell growth at 10^-4 M by sulforhodamine B assay; details: read-out: Activity
[30] = system: UACC-62; assay: Growth inhibition of human UACC62 cells by sulforhodamine B assay
[31] = Growth inhibition of human NCI-ADR-RES cells assessed as cell growth at 10^-6 M by sulforhodamine B assay; details: read-out: Activity
[32] = system: BT-549; assay: Growth inhibition of human BT549 cells assessed as cell growth at 10^-8 M by sulforhodamine B assay; details: read-out: Activity
[33] = system: SK-OV-3; assay: Growth inhibition of human SKOV3 cells assessed as cell growth at 10^-6 M by sulforhodamine B assay; details: read-out: Activity
[34] = system: NCI-H522; assay: Growth inhibition of human NCI-H522 cells assessed as cell growth at 10^-7 M by sulforhodamine B assay; details: read-out: Activity
[35] = system: SN12C; assay: Growth inhibition of human SN12C cells assessed as cell growth at 10^-8 M by sulforhodamine B assay; details: read-out: Activity
[36] = system: SR; assay: Growth inhibition of human SR cells assessed as cell growth at 10^-6 M by sulforhodamine B assay; details: read-out: Activity
[37] = system: K562; assay: Growth inhibition of human K562 cells assessed as cell growth at 10^-4 M by sulforhodamine B assay; details: read-out: Activity
[38] = system: HCT-116; assay: Growth inhibition of human HCT116 cells by sulforhodamine B assay
[39] = system: UACC-257; assay: Growth inhibition of human UACC257 cells assessed as cell growth at 10^-4 M by sulforhodamine B assay; details: read-out: Activity
[40] = system: M14; assay: Growth inhibition of human M14 cells assessed as cell growth at 10^-4 M by sulforhodamine B assay; details: read-out: Activity
[41] = system: SK-MEL-2; assay: Growth inhibition of human SK-MEL-2 cells by sulforhodamine B assay
[42] = read-out: LC50 (the source's name)
[43] = read-out: pLC50 (the source's name) (converted)

Compound `CC(C)=CC(=O)O[C@@H]1CC(C)(C)C[C@H]2C3=CC[C@@H]4[C@@]5(C)CCC(=O)C(C)(C)[C@@H]5CC[C@@]4(C)[C@]3(C)CC[C@@]12C(=O)O` has a growth at 0.01 µM [1] of 88%, a growth at 100 µM [2] of -73% and a growth at 1 µM [3] of 76%. It also gave a growth at 100 µM [4] of -64%, a growth at 1 µM [5] of 85% and a growth at 0.01 µM [6] of 106%. The growth at 0.1 µM [7] was 90%, the growth at 1 µM [8] was 82% and the growth at 1 µM [9] was 74%. It also gave a growth at 0.1 µM [10] of 93%, a GI50 ([11]; read-out: GI50) of 2.99 µM and a CC50 [11, 42] greater than 100 µM. It also gave a TGI ([11]; read-out: TGI) of 27.9 µM, a GI50 ([11]; read-out: pGI50 (converted)) of 3.02 µM and a CC50 [11, 43] greater than 100 µM. It also gave a TGI ([11]; read-out: pTGI (converted)) of 28.2 µM, a growth at 0.01 µM [12] of 108% and a growth at 0.1 µM [13] of 90%. For the same compound, the GI50 ([14]; read-out: GI50) was 3.47 µM, the LC50 ([14]; read-out: LC50) was greater than 100 µM and the TGI ([14]; read-out: TGI) was greater than 100 µM. The GI50 ([14]; read-out: pGI50 (converted)) was 3.47 µM, the LC50 ([14]; read-out: pLC50 (converted)) was greater than 100 µM and the TGI ([14]; read-out: pTGI (converted)) was greater than 100 µM. It also gave a growth at 1 µM [15] of 83%, a growth at 1 µM [16] of 73% and a growth at 0.01 µM [17] of 92%. For the same compound, the growth at 1 µM [18] was 88%, the GI50 ([19]; read-out: GI50) was 0.879 µM and the LC50 (50% net cell kill) ([19]; read-out: LC50) was 59.3 µM. The TGI ([19]; read-out: TGI) was 15.3 µM, the GI50 ([19]; read-out: pGI50 (converted)) was 0.871 µM and the LC50 (50% net cell kill) ([19]; read-out: pLC50 (converted)) was 58.9 µM. The TGI ([19]; read-out: pTGI (converted)) was 15.5 µM, the growth at 0.01 µM [20] was 94% and the growth at 0.01 µM [21] was 93%. The GI50 ([22]; read-out: GI50) was 5.68 µM, the LC50 ([22]; read-out: LC50) was greater than 100 µM and the TGI ([22]; read-out: TGI) was greater than 100 µM. The GI50 ([22]; read-out: pGI50 (converted)) was 5.62 µM, the LC50 ([22]; read-out: pLC50 (converted)) was greater than 100 µM and the TGI ([22]; read-out: pTGI (converted)) was greater than 100 µM. For the same compound, the growth at 100 µM [23] was -15%, the growth at 1 µM [24] was 71% and the growth at 0.1 µM [25] was 93%. For the same compound, the growth at 100 µM [26] was -38%, the growth at 100 µM [27] was -44% and the growth at 0.1 µM [28] was 97%. The growth at 100 µM [29] was 6%, the GI50 ([30]; read-out: GI50) was 2.47 µM and the CC50 [30, 42] was 48.5 µM. It also gave a TGI ([30]; read-out: TGI) of 14.2 µM, a GI50 ([30]; read-out: pGI50 (converted)) of 2.45 µM and a CC50 [30, 43] of 49 µM. It also gave a TGI ([30]; read-out: pTGI (converted)) of 14.1 µM, a growth at 1 µM [31] of 85% and a growth at 0.01 µM [32] of 114%. The growth at 1 µM [33] was 108%, the growth at 0.1 µM [34] was 92% and the growth at 0.01 µM [35] was 99%. For the same compound, the growth at 1 µM [36] was 95%, the growth at 100 µM [37] was 15% and the GI50 ([38]; read-out: GI50) was 2.35 µM. It also gave an LC50 ([38]; read-out: LC50) greater than 100 µM, a TGI ([38]; read-out: TGI) of 53.5 µM and a GI50 ([38]; read-out: pGI50 (converted)) of 2.34 µM. It also gave an LC50 ([38]; read-out: pLC50 (converted)) greater than 100 µM, a TGI ([38]; read-out: pTGI (converted)) of 53.7 µM and a growth at 100 µM [39] of -15%. The growth at 100 µM [40] was -62%, the GI50 ([41]; read-out: GI50) was 3.48 µM and the CC50 [41, 42] was 61.3 µM. The TGI ([41]; read-out: TGI) was 16.9 µM, the GI50 ([41]; read-out: pGI50 (converted)) was 3.47 µM and the CC50 [41, 43] was 61.7 µM. It also gave a TGI ([41]; read-out: pTGI (converted)) of 17 µM.
